The source of these data is patent US20200239530A1, “COMPOUNDS AND METHODS OF MODULATING PROTEIN DEGRADATION” (Vividion Therapeutics, Inc., priority 2017, published 2020).

Common to all, as to test: Cysteine liganding, probe competition
Format in all cases: binding

One experiment addresses T1, UniProt Q9UPQ4 (Homo sapiens, UniProt Q9UPQ4).
T1 construct: 200 μL of lysate containing 5 mg/ml proteome was treated with 2 μL of 100× compound stock; endogenous in cells
T1 sequence (Q9UPQ4 1-493): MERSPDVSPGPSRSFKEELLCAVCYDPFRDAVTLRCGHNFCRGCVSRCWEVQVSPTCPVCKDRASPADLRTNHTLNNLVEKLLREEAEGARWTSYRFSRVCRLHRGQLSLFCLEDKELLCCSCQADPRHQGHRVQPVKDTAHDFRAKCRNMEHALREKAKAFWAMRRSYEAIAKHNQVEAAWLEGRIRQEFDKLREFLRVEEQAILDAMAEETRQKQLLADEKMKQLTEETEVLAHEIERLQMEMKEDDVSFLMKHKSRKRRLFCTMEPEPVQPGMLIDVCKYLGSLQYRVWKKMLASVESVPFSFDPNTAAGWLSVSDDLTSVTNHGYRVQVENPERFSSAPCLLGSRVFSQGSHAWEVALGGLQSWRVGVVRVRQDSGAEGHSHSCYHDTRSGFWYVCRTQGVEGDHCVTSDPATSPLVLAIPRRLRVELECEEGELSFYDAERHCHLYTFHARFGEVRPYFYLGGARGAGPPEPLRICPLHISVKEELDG
The source says:
(§1) The following 96-well sample prep protocol was used for sample preparation.

The next experiment has as its target T2, UniProt O14543 (Homo sapiens, UniProt O14543).
T2 construct: 200 μL of lysate containing 5 mg/ml proteome was treated with 2 μL of 100× compound stock; endogenous in cells
From the text: as §1

For the next experiment, the target named is T3, UniProt O43164 (Homo sapiens, UniProt O43164).
T3 construct: 200 μL of lysate containing 5 mg/ml proteome was treated with 2 μL of 100× compound stock; endogenous in cells
From the text: as §1

The next experiment addresses T4, UniProt Q9NPC7 (Homo sapiens, UniProt Q9NPC7).
T4 construct: Cells were resuspended in cold PBS on ice and sonicated with a probe sonicator to achieve lysis; endogenous in cells
T4 sequence (Q9NPC7 1-610): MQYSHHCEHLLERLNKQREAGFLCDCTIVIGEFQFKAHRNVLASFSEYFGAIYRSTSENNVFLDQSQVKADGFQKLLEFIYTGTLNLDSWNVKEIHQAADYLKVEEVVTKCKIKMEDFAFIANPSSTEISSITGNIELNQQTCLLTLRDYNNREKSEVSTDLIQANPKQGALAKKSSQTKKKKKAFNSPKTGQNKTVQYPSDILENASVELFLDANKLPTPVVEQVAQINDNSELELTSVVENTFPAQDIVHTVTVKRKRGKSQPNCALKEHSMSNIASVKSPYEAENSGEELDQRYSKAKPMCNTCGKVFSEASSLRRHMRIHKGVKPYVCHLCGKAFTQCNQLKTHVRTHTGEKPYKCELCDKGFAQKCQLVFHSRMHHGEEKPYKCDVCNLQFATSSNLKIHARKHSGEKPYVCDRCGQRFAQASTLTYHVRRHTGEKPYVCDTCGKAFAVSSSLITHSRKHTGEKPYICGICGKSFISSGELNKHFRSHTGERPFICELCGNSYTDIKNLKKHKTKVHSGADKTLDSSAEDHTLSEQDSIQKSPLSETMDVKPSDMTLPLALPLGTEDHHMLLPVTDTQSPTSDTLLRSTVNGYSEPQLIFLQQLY
From the text: as §1

In another experiment the target is T5, UniProt O96028 (Homo sapiens, UniProt O96028).
T5 construct: Cells were resuspended in cold PBS on ice and sonicated with a probe sonicator to achieve lysis; endogenous in cells
The following applies: 500 uM.
From the text: as §1

A further experiment addresses T6, UniProt Q6ZNB6 (Homo sapiens, UniProt Q6ZNB6).
T6 construct: Cells were resuspended in cold PBS on ice and sonicated with a probe sonicator to achieve lysis; endogenous in cells
T6 sequence (Q6ZNB6 1-911): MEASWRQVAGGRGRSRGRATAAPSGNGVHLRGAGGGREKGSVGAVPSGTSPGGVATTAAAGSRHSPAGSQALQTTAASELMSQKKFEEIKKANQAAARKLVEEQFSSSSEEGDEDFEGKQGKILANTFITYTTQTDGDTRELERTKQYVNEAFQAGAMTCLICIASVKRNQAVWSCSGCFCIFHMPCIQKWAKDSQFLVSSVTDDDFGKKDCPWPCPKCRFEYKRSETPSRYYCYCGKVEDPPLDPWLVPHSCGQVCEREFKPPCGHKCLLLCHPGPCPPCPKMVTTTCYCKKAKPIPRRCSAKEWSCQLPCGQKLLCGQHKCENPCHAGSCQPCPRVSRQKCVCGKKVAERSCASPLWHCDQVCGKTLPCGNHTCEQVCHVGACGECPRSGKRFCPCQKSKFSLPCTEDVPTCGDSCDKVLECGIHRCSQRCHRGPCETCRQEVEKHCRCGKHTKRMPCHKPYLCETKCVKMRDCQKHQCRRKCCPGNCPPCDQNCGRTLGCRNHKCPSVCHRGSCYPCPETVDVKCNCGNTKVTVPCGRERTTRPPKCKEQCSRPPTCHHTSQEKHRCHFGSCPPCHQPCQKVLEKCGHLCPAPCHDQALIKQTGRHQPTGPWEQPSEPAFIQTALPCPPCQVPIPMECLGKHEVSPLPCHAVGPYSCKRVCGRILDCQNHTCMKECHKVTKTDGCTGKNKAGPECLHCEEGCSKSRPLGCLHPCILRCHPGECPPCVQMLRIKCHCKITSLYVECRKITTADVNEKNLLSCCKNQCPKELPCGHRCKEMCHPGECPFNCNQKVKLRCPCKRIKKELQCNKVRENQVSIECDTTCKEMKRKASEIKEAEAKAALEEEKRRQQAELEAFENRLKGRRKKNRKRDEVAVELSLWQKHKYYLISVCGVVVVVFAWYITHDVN
The note with it: for percent inhibition: 100 uM.
From the text: as §1

The next experiment addresses T7, UniProt P36406 (Homo sapiens, UniProt P36406).
T7 construct: 200 μL of lysate containing 5 mg/ml proteome was treated with 2 μL of 100× compound stock; endogenous in cells
From the text: as §1

Another experiment has as its target T8, UniProt A1L020 (Homo sapiens, UniProt A1L020).
T8 construct: Cells were resuspended in cold PBS on ice and sonicated with a probe sonicator to achieve lysis; endogenous in cells
From the text: as §1

T8 sequence (A1L020 whole entry, change not shown): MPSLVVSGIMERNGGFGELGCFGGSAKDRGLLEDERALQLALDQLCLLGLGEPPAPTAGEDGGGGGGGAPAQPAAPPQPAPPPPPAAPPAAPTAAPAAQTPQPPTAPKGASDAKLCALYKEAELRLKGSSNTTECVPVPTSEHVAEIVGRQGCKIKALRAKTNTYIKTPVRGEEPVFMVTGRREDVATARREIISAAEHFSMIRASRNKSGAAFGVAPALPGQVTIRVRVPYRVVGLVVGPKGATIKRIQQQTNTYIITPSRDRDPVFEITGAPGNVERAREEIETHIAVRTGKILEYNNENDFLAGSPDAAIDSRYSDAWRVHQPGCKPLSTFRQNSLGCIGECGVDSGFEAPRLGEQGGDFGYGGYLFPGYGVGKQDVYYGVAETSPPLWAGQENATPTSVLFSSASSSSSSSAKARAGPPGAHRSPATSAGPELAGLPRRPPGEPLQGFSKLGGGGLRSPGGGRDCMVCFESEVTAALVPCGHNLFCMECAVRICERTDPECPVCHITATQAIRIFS
T3 sequence (O43164 whole entry, change not shown): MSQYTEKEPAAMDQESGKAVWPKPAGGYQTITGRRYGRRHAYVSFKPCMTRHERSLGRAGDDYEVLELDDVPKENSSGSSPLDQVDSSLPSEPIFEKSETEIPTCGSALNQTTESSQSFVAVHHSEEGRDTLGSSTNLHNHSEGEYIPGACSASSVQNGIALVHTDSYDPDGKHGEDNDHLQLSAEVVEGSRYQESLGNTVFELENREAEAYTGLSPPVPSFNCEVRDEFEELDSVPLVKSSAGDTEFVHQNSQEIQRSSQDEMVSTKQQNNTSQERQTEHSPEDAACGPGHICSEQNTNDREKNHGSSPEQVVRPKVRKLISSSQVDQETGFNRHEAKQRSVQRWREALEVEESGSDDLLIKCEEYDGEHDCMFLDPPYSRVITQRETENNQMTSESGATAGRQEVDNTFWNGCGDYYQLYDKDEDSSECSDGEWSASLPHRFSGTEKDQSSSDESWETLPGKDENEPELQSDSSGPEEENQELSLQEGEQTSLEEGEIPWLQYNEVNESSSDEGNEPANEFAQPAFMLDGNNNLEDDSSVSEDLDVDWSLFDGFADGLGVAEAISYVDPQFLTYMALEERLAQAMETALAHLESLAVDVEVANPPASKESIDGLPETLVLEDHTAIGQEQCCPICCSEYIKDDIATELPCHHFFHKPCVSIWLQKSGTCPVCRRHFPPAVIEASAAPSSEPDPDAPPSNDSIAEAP
T5 sequence (O96028 whole entry, change not shown): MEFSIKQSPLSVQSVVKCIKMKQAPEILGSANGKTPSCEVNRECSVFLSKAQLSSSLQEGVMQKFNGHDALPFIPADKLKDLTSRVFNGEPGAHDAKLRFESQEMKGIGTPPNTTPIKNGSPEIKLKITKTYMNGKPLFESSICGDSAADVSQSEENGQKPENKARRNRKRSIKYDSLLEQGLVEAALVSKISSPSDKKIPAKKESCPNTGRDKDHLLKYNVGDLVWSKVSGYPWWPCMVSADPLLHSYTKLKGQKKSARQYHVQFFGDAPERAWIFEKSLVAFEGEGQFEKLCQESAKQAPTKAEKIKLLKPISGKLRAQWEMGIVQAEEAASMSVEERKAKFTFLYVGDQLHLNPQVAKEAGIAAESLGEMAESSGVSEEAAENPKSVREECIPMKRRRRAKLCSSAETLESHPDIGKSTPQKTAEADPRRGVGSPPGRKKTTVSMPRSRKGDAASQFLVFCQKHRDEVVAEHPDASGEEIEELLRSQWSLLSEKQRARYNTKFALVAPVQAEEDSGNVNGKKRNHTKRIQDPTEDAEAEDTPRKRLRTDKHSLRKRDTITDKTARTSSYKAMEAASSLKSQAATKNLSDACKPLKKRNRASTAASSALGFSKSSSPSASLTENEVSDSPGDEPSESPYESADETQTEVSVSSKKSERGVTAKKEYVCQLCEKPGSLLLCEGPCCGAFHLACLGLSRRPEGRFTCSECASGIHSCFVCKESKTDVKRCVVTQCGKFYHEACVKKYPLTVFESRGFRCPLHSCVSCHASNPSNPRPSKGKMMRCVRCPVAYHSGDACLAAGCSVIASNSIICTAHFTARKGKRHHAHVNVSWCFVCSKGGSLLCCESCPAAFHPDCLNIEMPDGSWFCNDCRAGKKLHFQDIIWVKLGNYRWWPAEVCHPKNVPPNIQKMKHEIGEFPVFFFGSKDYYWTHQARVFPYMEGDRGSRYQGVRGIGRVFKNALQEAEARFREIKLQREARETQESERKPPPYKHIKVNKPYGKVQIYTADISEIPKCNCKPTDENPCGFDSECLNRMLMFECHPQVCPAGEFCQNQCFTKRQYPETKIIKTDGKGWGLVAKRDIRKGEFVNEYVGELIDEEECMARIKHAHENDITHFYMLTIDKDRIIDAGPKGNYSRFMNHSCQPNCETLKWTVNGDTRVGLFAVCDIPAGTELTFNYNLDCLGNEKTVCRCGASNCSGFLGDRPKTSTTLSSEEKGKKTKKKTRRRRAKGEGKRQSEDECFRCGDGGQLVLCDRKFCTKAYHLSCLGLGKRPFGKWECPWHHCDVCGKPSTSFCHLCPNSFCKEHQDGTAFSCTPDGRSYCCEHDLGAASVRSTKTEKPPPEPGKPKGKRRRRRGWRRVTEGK
T7 sequence (P36406 whole entry, change not shown): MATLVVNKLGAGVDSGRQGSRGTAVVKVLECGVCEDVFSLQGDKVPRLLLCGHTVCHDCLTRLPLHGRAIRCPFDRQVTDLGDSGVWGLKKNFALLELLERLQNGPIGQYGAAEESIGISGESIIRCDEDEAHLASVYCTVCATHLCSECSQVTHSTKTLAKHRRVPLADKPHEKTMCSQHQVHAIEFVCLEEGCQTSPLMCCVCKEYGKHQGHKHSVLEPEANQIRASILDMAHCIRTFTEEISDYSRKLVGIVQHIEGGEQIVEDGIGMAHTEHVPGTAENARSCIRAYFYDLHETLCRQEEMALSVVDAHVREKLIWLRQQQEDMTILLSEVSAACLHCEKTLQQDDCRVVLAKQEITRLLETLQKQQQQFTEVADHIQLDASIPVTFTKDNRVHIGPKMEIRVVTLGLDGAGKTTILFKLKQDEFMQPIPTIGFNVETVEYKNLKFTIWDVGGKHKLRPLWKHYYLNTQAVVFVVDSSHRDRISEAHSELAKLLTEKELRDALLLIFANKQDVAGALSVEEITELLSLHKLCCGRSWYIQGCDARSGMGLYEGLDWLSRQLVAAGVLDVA
T2 sequence (O14543 whole entry, change not shown): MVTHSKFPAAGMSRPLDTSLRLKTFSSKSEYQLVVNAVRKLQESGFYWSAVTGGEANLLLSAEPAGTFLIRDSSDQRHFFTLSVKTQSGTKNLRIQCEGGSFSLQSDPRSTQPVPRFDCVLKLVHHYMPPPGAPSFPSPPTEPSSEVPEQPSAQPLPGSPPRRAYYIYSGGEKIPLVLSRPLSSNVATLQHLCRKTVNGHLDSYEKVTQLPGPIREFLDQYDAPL

`COc1ccc2c(c1)CCCN2C(=O)CCl` [KB02]: the inhibition at 100 µM came out at 10% at UniProt Q9UPQ4 (100 uM, read-out: KB02_100 uM_percent_inhibition) and 40% on UniProt O14543 (read-out: percent_inhibition). Besides, the inhibition at 500 µM on UniProt Q9UPQ4 (500 uM, read-out: KB02_500 uM_percent_inhibition) came out at 27%.

With `C=CC(=O)N(c1ccccc1)c1ccc(Br)cc1` [KB05], the inhibition at 100 µM amounted to 1% on UniProt O43164 (read-out: KB05_100 uM_percent_inhibition); 1% on UniProt Q9NPC7 (100 uM, read-out: percent inhibition); 21% on UniProt Q6ZNB6 (read-out: percent inhibition); 19% at UniProt A1L020 (read-out: percent inhibition). For the same compound, the inhibition at 500 µM came to 58% on UniProt Q9NPC7 (500 uM, read-out: percent inhibition) and 61% at UniProt P36406 (read-out: KB05_500 uM_percent_inhibition). Further, at UniProt O96028, the “KB05_500 uM_percent_inhibition” value is 79%. In addition, the percent inhibition on UniProt Q6ZNB6 is recorded as 36%.

In the case of `O=C(CCl)Nc1cc(C(F)(F)F)cc(C(F)(F)F)c1` [KBO3], the “KB03_100 uM_percent_inhibition” value at UniProt O43164 (100 uM) is given as 22%. Also, the percent inhibition on UniProt Q9NPC7 (100 uM) came out at 30%; at UniProt Q6ZNB6 it was 20%; at UniProt A1L020 (100 uM), 52%. Moreover, the “KB03_500 uM_percent_inhibition” value at UniProt Q9UPQ4 (500 uM) is listed as 32%; on UniProt O96028, 78%; on UniProt P36406 (500 uM), 17%. On UniProt O14543 (100 uM), this compound had a percent_inhibition of 91%.
